Test results reported in patent US11518777B2, “Inhibitors of the shikimate pathway” (Eberhard Karls Universität Tübingen, priority 2017, dated 2022).

Experiments:
Legionella = type: cell-based; settings: natural water samples, 37° C., after ten days
A. thaliana = test: Germination and seedling size of A. thaliana on agar containing inhibitor; settings: for root and cotyledons formation: 260 μM (glyphosate equimolar)

SMILES | number of CFUs of Legionella, times lower compared to the control (Legionella) | gravitropism of the seedlings (A. thaliana; 260 μM) | root and cotyledons formation (A. thaliana) | size of the seedlings (A. thaliana; 260 μM, 7 days of germination) [mm] | size of the seedlings compared to the control (A. thaliana; 260 μM, 7 days of germination) | germination process (A. thaliana; 130-260 μM) | inhibitory capacity on A. thaliana compared to glyphosate (seedling-size and morphological appearance) (A. thaliana; concentrations higher than 130 μM (~25 μg/mL)) | growth inhibitory effects on A. thaliana (A. thaliana; concentrations up to 50 μM, 7 days of germination)
C[C@@H](O)[C@@H](O)[C@@H](O)[C@H](O)C(=O)CO [7dSh, 7-deoxy-D-altro-heptulose] | 4-5 times lower | impaired in gravitropism | only minor root and cotyledons formation was observed | ~2 | three times lower | came to an arrest within the first days | significant increased inhibitory capacity | comparable to glyphosate
O=C(O)CNCP(=O)(O)O [glyphosate, reference compound] |  |  | developed further and showed more distinct root and cotyledons formation |  |  |  |  | 
